Data reported in US20150368617A1, “METHOD FOR FORMING ENDOTHELIAL CELLS” (Korea Advanced Institute of Science and Technology (KAIST), priority 2012, published 2015).

Columns and labels:
Assay type in all cases: cell-based, mouse
[1] = system: Flk1+ MPCs; experiment: EC colony assay; settings: 36 hrs; VEGF-A 50 ng/ml, Y27632 10 μM
Protocol: The Flk1+ MPCs were plated onto Matrigel-coated plate at a density of 4,000 cells/cm^2, and cultured in differentiation medium supplemented with VEGF-A165 (50 ng/ml) and Y27632 (10┌M). At 36 hrs later, the number of CD144+ EC colonies was counted. Clustering of >5 CD144+ ECs was regarded as one EC colony.

[2] = system: VYI-ECs; experiment: Matrigel tube forming assay; settings: addition of Y27632 10 μM to VEGF-A
Protocol: The purified VYI-ECs (described in detail in the Results section) were plated on Matrigel-filled plates at a density of 2-4×10^4 cells/cm^2, and were incubated in differentiation medium containing VEGF-A (50 ng/ml) with or without Y27632 (10┌ M). After 12 hrs, the tube structures were observed using Axiovert 25 microscope (Carl Zeiss) and phase-contrast images were taken using DeltaPix infinity X digital camera and DpxView LE software (DeltaPix, Denmark).

[3] = system: Flk1+ MPCs; experiment: Immunofluorescence staining of differentiating Flk1+ MPCs (CD144, αSMA, PHH3)
Protocol: Cultured cells were fixed with 2% paraformaldehyde (PFA) and blocked with 5% goat (or donkey) serum in PBST (0.3% Triton X-100 in PBS) for 1 hr at room temperature (RT). The cells were incubated overnight at 4┌ C with the following primary antibodies: anti-mouse CD144 (clone 11D4.1, BD Pharmingen™), anti-mouse phospho-histone H3 (rabbit polyclonal, Upstate), anti-mouse cTnT (NeoMarkers), Cy3-conjugated anti-┌ SMA (clone 1A4, Sigma), and anti-mouse CD31 (clone 2H8, Chemicon). After washing in PBST 4 times, the cells were incubated for 2 hrs at RT with the following secondary antibodies: Cy3-conjugated anti-rabbit IgG (Jackson ImmunoResearch), Cy3-conjugated anti-hamster IgG (Jackson ImmunoResearch), Cy3-conjugated anti-mouse IgG antibody (Jackson ImmunoResearch) and FITC or Cy3-conjugated anti-rat (Jackson ImmunoResearch). F-actin and nuclei were stained with TRITC-phalloidin (Invitrogen) and 4′,6-diamidino-2-phenylindole (DAPI, Invitrogen), respectively. The cells were then mounted in fluorescent mounting medium (DAKO Corporation).

[4] = system: ICAM2+ ECs; experiment: Cell cycle FACS analysis in ICAM2+ ECs; settings: 12 hrs after plating
Protocol: (§1) FIGS. 15A-15D. ROCK suppression continuously promotes the expansion of ECs. ICAM2+ ECs were further incubated with PBS (Control), Y27632 (10┌ M), VEGF-A (50 ng/ml; VA) or Y27632 (10┌ M) plus VEGF-A (50 ng/ml) for 2 days, and analyses were performed at day 8.5. (FIG. 15A) Representative FACS analysis showing cell cycle in ICAM2+ ECs at 12 hrs. (FIG. 15B) % of ICAM2+ ECs under each phase of cell cycle at 12 hrs. Each group, n=3. *p<0.01 versus Control; ^#p<0.01 versus VEGF-A. (FIG. 15C) Representative FACS analysis of Annexin V+/PI− apoptotic ECs. (FIG. 15D) % of Annexin V+/PI− ECs. Each group, n=3. *p<0.01 versus Control.
(§2) Apoptosis assay was performed as previously described. To determine the cell cycle, BrdU/7-AAD cell cycle analysis was performed according to the manufacturer's instructions (BD Pharmingen™). Briefly, cells were incubated with BrdU (1 mM) for 1 hr, dissociated with dissociation buffer, and stained with anti-CD144 antibody. The cells were then fixed, permeabilized, and fixed once more, followed by 1 hr incubation with DNase I (200 U) at 37┌ C. After incubation with FITC-conjugated anti-BrdU antibody for 20 min at RT, the cells were stained with 7-AAD. The cells were analyzed by FACS Aria II and the data were analyzed using FlowJo software.

[5] = system: ICAM2+ ECs; experiment: Apoptosis assay (Annexin V/PI) in ICAM2+ ECs
Protocol: as §1, §2

[6] = system: VYI-ECs; experiment: Scratch wound healing assay; settings: addition of Y27632 10 μM to VEGF-A
Protocol: The purified VYI-ECs were plated on Matrigel-coated plates and incubated in differentiation medium until confluent. A single scratch wound was made on the cell-plated surface with a 200┌ l disposable pipette tip, and the medium was exchanged with a new medium containing either VEGF-A (50 ng/ml), Y27632 (10┌ M), or both. The wound was allowed to heal for 12 hrs. Phase contrast images were taken at 0, 3, 6, and 12 hrs. The average extent of wound closure was evaluated by measuring the wound area using ImageJ software.

[7] = system: CD144+ ECs; experiment: FACS phenotypic analysis of EC and MC markers at day 6.5
Protocol: FIGS. 12A to 12B-6. ROCK suppression-induced ECs express EC-specific genes. (FIG. 12A) Diagram of cell preparations for phenotype analyses of EC and MC differentiation. Flk1+ MPCs were incubated with only VEGF-A (50 ng/ml) (Control) and VEGF-A (50 ng/ml) plus Y27632 (10┌ M) (Y72632) for 2 days. (FIG. 12B-1 to FIG. 12B-6) Representative FACS analysis for phenotypic markers in CD144+ cells; pan-endothelial, mural, and arterial-, venous- and lymphatic EC.
Cells were harvested with 0.25% trypsin-EDTA (Invitrogen) or dissociation buffer (Invitrogen) and resuspended in HBSS/2% FBS at 1×10^6 cells per 100┌ l. The cells were incubated for 20 min with the following antibodies: biotin-conjugated anti-mouse Flk1 (clone AVAS12a1, eBioscience), allophycocyanin (APC)-conjugated anti-mouse CD140a (clone APA5, eBioscience), phycoerythrin(PE)-conjugated anti-mouse CD31 (clone 390, eBioscience), Alexa Fluor® 647-conjugated anti-mouse CD144 (clone BV13, eBioscience), PE-conjugated anti-mouse D114 (clone HMD4-1, Biolegend), PE-conjugated anti-mouse Tie2 (clone TEK4, eBioscience), PE-conjugated anti-mouse Endoglin (clone MJ7/18, Biolegend), anti-mouse ICAM2 (clone 3C4, Biolegend), APC-conjugated anti-mouse CD140b (clone APBS, eBioscience), PE-conjugated anti-mouse LYVE1 (clone ALY7, eBioscience), anti-mouse VEGFR3 (goat polyclonal, R&D systems), anti-mouse EphB4 (clone VEB4-7E4, Hycult biotech), and PE-conjugated anti-mouse Notch1 (clone HMN1-12, Biolegend). After washing in HBSS/2% FBS twice, the cells were incubated with the following secondary antibodies: PE-conjugated streptavidin (eBioscience), PE-conjugated anti-rat IgG2a (eBioscience), and FITC-conjugated anti-goat IgG (Invitrogen). Dead cells were excluded by 7-aminoactinomycin D (7-AAD, Invitrogen).

**Q.** `C[C@@H](N)[C@H]1CC[C@H](C(=O)Nc2ccncc2)CC1` [Y27632] was tested. Which “number of EC colonies and cell number in each colony” value [1] did it give?
**A.** increased

**Q.** And the “increase of formation of vascular networks” value [2]?
**A.** 1.7 fold

**Q.** And the “population of PHH3+/CD144+ ECs compared to control” value ([3]; 36 hrs, Y27632 10 μM plus VEGF-A)?
**A.** 3.7 fold

**Q.** What about the “number of surrounding αSMA+MCs” value ([3]; day 6.5, Y27632 10 μM) of the same compound?
**A.** decreased

**Q.** What about the “size and number of CD144+ EC colonies” value ([3]; day 6.5, Y27632 10 μM) of the same compound?
**A.** increased

**Q.** What about the “increase of percentage of cells in S phase compared to control” value [4] of the same compound?
**A.** ~1.8 fold

**Q.** What about the “apoptosis of ECs” value [5] of the same compound?
**A.** mildly inhibited

**Q.** What about the “increase of cell invasion into the wound region” value [6] of the same compound?
**A.** 2.1 fold

**Q.** And the “population of CD144+ ECs expressing pan-endothelial cell surface markers (Flk1, Tie2, endoglin and ICAM2) compared to control” value [7]?
**A.** ~2.0 fold

**Q.** And the “population of CD144+ ECs that express D114 (arterial)” value [7]?
**A.** 4.6 fold

**Q.** What about the “population of CD144+ ECs that express EphB4 (venous)” value [7] of the same compound?
**A.** 2.4 fold

**Q.** And the “population of CD144+ ECs that express LYVE-1 (lymphatic)” value [7]?
**A.** 2.1 fold

**Q.** And the “population of CD144+ ECs that express Notch1 (arterial)” value [7]?
**A.** 2.4 fold

**Q.** What about the “population of CD144+ ECs that express VEGFR3 (lymphatic)” value [7] of the same compound?
**A.** 3.8 fold

**Q.** What about the “populations of cells expressing αSMA and CD140b” value [7] of the same compound?
**A.** markedly reduced
